The structures appear in SMILES notation. Several values for one entry are separate records, joined by “and”; a condition that tells them apart may be missing. Identical values can stand only once.

In assay [1] the test system is MMP's. Particulars: literature (Burns et al. 1989; Gabler et al. 1991); cited from earlier work.
Assay [2] deals with T1, MMP-2 (Homo sapiens, UniProt P08253).
T1 construct: known to secrete a large amount of several matrix-degrading enzymes, among which are MMP-2 and MMP-9; endogenous in cells; host or cells: HT-1080 human fibrosarcoma cells (secreted enzyme)
T1 sequence (P08253 110-660): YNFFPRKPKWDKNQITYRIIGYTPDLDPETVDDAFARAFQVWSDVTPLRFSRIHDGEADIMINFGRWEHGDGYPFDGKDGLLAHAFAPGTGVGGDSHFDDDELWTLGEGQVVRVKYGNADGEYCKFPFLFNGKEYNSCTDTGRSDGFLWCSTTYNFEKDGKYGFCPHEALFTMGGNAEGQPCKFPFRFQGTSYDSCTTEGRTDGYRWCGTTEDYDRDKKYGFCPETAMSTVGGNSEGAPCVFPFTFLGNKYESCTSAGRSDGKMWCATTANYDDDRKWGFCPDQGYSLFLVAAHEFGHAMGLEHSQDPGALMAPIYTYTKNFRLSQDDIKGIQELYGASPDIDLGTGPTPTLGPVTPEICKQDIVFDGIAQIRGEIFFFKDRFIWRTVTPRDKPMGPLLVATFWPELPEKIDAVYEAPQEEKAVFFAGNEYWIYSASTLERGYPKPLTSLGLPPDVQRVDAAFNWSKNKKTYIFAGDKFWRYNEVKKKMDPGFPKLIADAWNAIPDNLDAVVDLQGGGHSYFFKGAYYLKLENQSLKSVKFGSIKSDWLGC
The experiment in a line: Zymography, inhibition of gelatinolytic activity. It counts as biochemical. Particulars: MMP-2 acquired from HT-1080; result determined visually; read-out: concentration at which complete inhibition was achieved. An excerpt: (§1) In checking the inhibition of the doxycycline on MMP's a Zymography method was used (Mackay et al., Cancer Res., 50(18), 5997-6001, 1990).
(§2) Cell culture: HT-1080 is human fibrosarcoma cell line which is known to secrete a large amount of several matrix-degrading enzymes, among which are MMP-2 and MMP-9 (Kawamata et al., International Journal of Oncology, 13, 699-704, 1998).

Assay [3] deals with T2, MMP-9 (Homo sapiens, UniProt P14780).
T2 construct: known to secrete a large amount of several matrix-degrading enzymes, among which are MMP-2 and MMP-9; endogenous in cells; host or cells: HT-1080 human fibrosarcoma cells (secreted enzyme)
T2 sequence (P14780 94-707): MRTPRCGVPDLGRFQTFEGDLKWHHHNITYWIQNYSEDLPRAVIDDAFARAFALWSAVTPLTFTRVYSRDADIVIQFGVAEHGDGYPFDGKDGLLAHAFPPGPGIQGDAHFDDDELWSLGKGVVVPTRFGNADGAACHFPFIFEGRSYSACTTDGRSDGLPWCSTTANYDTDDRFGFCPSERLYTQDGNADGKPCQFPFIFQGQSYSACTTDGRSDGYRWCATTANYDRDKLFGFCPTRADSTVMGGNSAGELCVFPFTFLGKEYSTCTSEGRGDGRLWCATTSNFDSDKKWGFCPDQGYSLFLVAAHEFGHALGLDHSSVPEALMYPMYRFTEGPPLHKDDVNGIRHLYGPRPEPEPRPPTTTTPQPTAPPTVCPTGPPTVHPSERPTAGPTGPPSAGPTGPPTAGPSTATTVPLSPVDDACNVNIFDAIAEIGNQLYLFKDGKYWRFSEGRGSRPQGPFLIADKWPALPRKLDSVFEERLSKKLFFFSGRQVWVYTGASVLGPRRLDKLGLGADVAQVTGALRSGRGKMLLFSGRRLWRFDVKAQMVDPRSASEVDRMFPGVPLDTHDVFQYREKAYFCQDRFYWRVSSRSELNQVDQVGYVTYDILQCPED
The experiment in a line: Zymography, inhibition of gelatinolytic activity. It is filed as biochemical. The conditions noted are these: MMP-9 acquired from HT-1080; result determined visually; read-out: concentration at which complete inhibition was achieved.
Text: as §1, §2

For the molecule `O=C(O)CN(CCN(CC(=O)O)CC(=O)O)CC(=O)O` [EDTA], the “inhibition of the MMP's (in words)” value in assay [1] was “have shown inhibition of MMP's”. On to `CCN(CC)CCCCCCCCOC(=O)c1cc(OC)c(OC)c(OC)c1` [TMB-8], for which the “inhibition of the MMP's (in words)” value in assay [1] is listed as “have shown inhibition of MMP's”. For the molecule `C[C@H]1c2cccc(O)c2C(=O)C2=C(O)[C@]3(O)C(=O)C(C(N)=O)=C(O)[C@@H](N(C)C)[C@@H]3[C@@H](O)[C@@H]21` [doxycycline], the IC100 in assay [2] was 100 µM and 48 µg/mL; in assay [3] it was 50 µM and 24 µg/mL.
